Data taken from US20260184675A1, “CHIRAL ISOMERIC SULFITE COMPOUND AND APPLICATION THEREOF” (Chengdu Hanova BioSciences Co., Ltd, priority 2024, published 2026).

How the values were obtained:
[1] = test system: pest eggs of Tetranychus cinnabarinus; experiment: Effect on hatching of pest eggs of Tetranychus cinnabarinus, leaf disc method; format: in vivo; conditions: for Hatching rate (%): 7 days after insecticide delivery; for inhibitory effect on the hatching of pest eggs of Tetranychus cinnabarinus (in words): 1 ppm
Procedure, shortened: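 Adult female mites laid eggs on 2.0 cm Vicia faba leaf discs for up to 36 h; discs with counted eggs were dipped 10 s in compound solution or water, then kept moist. Hatched eggs were counted 7 days after treatment and control effect was calculated by formula.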

[2] = test system: eggs of Panonychus citri; experiment: Effect on hatching of eggs of Panonychus citri, leaf disc method; format: in vivo; conditions: 1 ppm; for Hatching rate (%), Replicate 1 / Hatching rate (%), Replicate 2 / Hatching rate (%), Replicate 3 / Number of hatched larvae 5 days after insecticide delivery, Replicate 1 / Number of hatched larvae 5 days after insecticide delivery, Replicate 2 / Number of hatched larvae 5 days after insecticide delivery, Replicate 3: Panonychus citri eggs; for Hatching rate (%), Replicate 1 / Hatching rate (%), Replicate 2 / Hatching rate (%), Replicate 3: 5 days after delivery; for Number of hatched larvae 5 days after insecticide delivery, Replicate 1 / Number of hatched larvae 5 days after insecticide delivery, Replicate 2 / Number of hatched larvae 5 days after insecticide delivery, Replicate 3: leaf disc
[3] = test system: eggs of Harmonia axyridis; experiment: Effect on hatching of eggs of Harmonia axyridis, egg card immersion; format: in vivo; conditions: 100 ppm; for Number of hatched larvae 4 days after insecticide delivery, Replicate 1 / Number of hatched larvae 4 days after insecticide delivery, Replicate 2 / Number of hatched larvae 4 days after insecticide delivery, Replicate 3: Harmonia axyridis egg cards, immersed 30 seconds; for Hatching rate (%), Replicate 1 / Hatching rate (%), Replicate 2 / Hatching rate (%), Replicate 3: Harmonia axyridis eggs, 4 days after delivery
Procedure, shortened: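 Egg cards (~20 eggs each) dipped 30 s in 100 ppm insecticide, air dried and kept moist at 27° C; 5 cards per treatment, 3 replicates. Hatching assessed 4 days after treatment against pre-treatment egg counts, and control effect calculated by formula.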

[4] = test system: Magnaporthe grisea; format: cell-based; conditions: 100 ppm; for Average antifungal rate (%) / Antifungal rate of Magnaporthe grisea (%), Replicate 1 / Antifungal rate of Magnaporthe grisea (%), Replicate 2 / Antifungal rate of Magnaporthe grisea (%), Replicate 3: 96-well plate; for Average antifungal rate (%): average of 3 replicates

Row | SMILES | Hatching rate (%) ([1]; 0.25 mg/L, Replicate 1) | Hatching rate (%) ([1]; 0.25 mg/L, Replicate 2) | Number of hatched larvae 7 days after insecticide delivery ([1]; 0.25 mg/L, Replicate 1) | Number of hatched larvae 7 days after insecticide delivery ([1]; 0.25 mg/L, Replicate 2) | Hatching rate (%) ([1]; 0.5 mg/L, Replicate 1) | Hatching rate (%) ([1]; 0.5 mg/L, Replicate 2) | Number of hatched larvae 7 days after insecticide delivery ([1]; 0.5 mg/L, Replicate 1) | Number of hatched larvae 7 days after insecticide delivery ([1]; 0.5 mg/L, Replicate 2) | Hatching rate (%) ([1]; 1 mg/L, Replicate 1) | Hatching rate (%) ([1]; 1 mg/L, Replicate 2) | Number of hatched larvae 7 days after insecticide delivery ([1]; 1 mg/L, Replicate 1) | Number of hatched larvae 7 days after insecticide delivery ([1]; 1 mg/L, Replicate 2) | inhibitory rate against Magnaporthe grisea (in words) [4] | Average antifungal rate (%) [4] | Antifungal rate of Magnaporthe grisea (%), Replicate 1 [4] | Antifungal rate of Magnaporthe grisea (%), Replicate 2 [4] | Antifungal rate of Magnaporthe grisea (%), Replicate 3 [4] | inhibitory effect on the hatching of pest eggs of Tetranychus cinnabarinus (in words) [1] | inhibitory effect on the hatching of eggs of Panonychus citri (in words) [2] | inhibitory activity on the hatching of eggs of Harmonia axyridis (in words) [3] | also measured
1 | C[C@H](COS(=O)OCCF)Oc1ccc(Cl)cc1Cl (stereo partly drawn) [1-(R,S)] | 74.51% | 76.47% | 13 | 14 | 43.66% | 48.98% | 40 | 25 | 4.69% | 6.67% | 61 | 42 | strong inhibitory rate | 81.91% | 75.86% | 83.08% | 86.80% | – | – | – | Hatching rate (%), Replicate 1 ([2]; listed as 1-(R, S)): 7.14%; Hatching rate (%), Replicate 2 ([2]; listed as 1-(R, S)): 8.39%; Hatching rate (%), Replicate 3 ([2]; listed as 1-(R, S)): 8.14%; Number of hatched larvae 5 days after insecticide delivery, Replicate 1 ([2]; listed as 1-(R, S)): 7; Number of hatched larvae 5 days after insecticide delivery, Replicate 2 ([2]; listed as 1-(R, S)): 12; Number of hatched larvae 5 days after insecticide delivery, Replicate 3 ([2]; listed as 1-(R, S)): 7; Number of hatched larvae 4 days after insecticide delivery, Replicate 1 ([3]; listed as 1-(R, S)): 11; Number of hatched larvae 4 days after insecticide delivery, Replicate 2 ([3]; listed as 1-(R, S)): 9; Number of hatched larvae 4 days after insecticide delivery, Replicate 3 ([3]; listed as 1-(R, S)): 10; Hatching rate (%), Replicate 1 ([3]; listed as 1-(R, S)): 9.91%; Hatching rate (%), Replicate 2 ([3]; listed as 1-(R, S)): 10.23%; Hatching rate (%), Replicate 3 ([3]; listed as 1-(R, S)): 10.53%
2 | CCC(COS(=O)OCCF)Oc1ccc(Cl)cc1Cl [19′-(R,R)] | 45.07% | 44.90% | 39 | 27 | 5.77% | 4.48% | 49 | 64 | 0.00% | 0.00% | 57 | 69 | strong inhibitory rate | – | 96.97% | 97.35% | 97.26% | excellent inhibitory effects | good inhibitory effects | strong inhibitory activities | Hatching rate (%), Replicate 1 [2]: 0.00%; Hatching rate (%), Replicate 2 [2]: 0.00%; Hatching rate (%), Replicate 3 [2]: 0.00%; Number of hatched larvae 5 days after insecticide delivery, Replicate 1 [2]: 0; Number of hatched larvae 5 days after insecticide delivery, Replicate 2 [2]: 0; Number of hatched larvae 5 days after insecticide delivery, Replicate 3 [2]: 0; Number of hatched larvae 4 days after insecticide delivery, Replicate 1 ([3]; listed as 19′-(R, R)): 0; Number of hatched larvae 4 days after insecticide delivery, Replicate 2 ([3]; listed as 19′-(R, R)): 0; Number of hatched larvae 4 days after insecticide delivery, Replicate 3 ([3]; listed as 19′-(R, R)): 0; Hatching rate (%), Replicate 1 ([3]; listed as 19′-(R, R)): 0.00%; Hatching rate (%), Replicate 2 ([3]; listed as 19′-(R, R)): 0.00%; Hatching rate (%), Replicate 3 ([3]; listed as 19′-(R, R)): 0.00%
3 | C[C@@H](COS(=O)OCCF)Oc1ccc(Cl)cc1Cl (stereo partly drawn) [1-(S,S)] | 50.88% | 38.98% | 28 | 36 | 0.00% | 9.72% | 70 | 65 | 0.00% | 0.00% | 75 | 68 | strong inhibitory rate | 97.35% | 99.38% | 95.02% | 97.64% | excellent inhibitory effects | good inhibitory effects | strong inhibitory activities | Hatching rate (%), Replicate 1 ([2]; listed as 1-(S, S)): 0.00%; Hatching rate (%), Replicate 2 ([2]; listed as 1-(S, S)): 0.00%; Hatching rate (%), Replicate 3 ([2]; listed as 1-(S, S)): 0.00%; Number of hatched larvae 5 days after insecticide delivery, Replicate 1 ([2]; listed as 1-(S, S)): 0; Number of hatched larvae 5 days after insecticide delivery, Replicate 2 ([2]; listed as 1-(S, S)): 0; Number of hatched larvae 5 days after insecticide delivery, Replicate 3 ([2]; listed as 1-(S, S)): 0; Number of hatched larvae 4 days after insecticide delivery, Replicate 1 ([3]; listed as 1-(S, S)): 0; Number of hatched larvae 4 days after insecticide delivery, Replicate 2 ([3]; listed as 1-(S, S)): 0; Number of hatched larvae 4 days after insecticide delivery, Replicate 3 ([3]; listed as 1-(S, S)): 0; Hatching rate (%), Replicate 1 ([3]; listed as 1-(S, S)): 0.00%; Hatching rate (%), Replicate 2 ([3]; listed as 1-(S, S)): 0.00%; Hatching rate (%), Replicate 3 ([3]; listed as 1-(S, S)): 0.00%
4 | CC(C)(COS(=O)OCCF)Oc1ccc(Cl)cc1Cl (centres unmarked) [Compound 10′] | – | – | – | – | – | – | 47 | – | – | – | – | – | strong inhibitory rate | 94.31% | 94.01% | 95.16% | 93.77% | excellent inhibitory effects | good inhibitory effects | strong inhibitory activities | Hatching rate (%), Replicate 1 [2]: 0.00%; Hatching rate (%), Replicate 2 [2]: 0.73%; Hatching rate (%), Replicate 3 [2]: 0.92%; Number of hatched larvae 5 days after insecticide delivery, Replicate 1 [2]: 0; Number of hatched larvae 5 days after insecticide delivery, Replicate 2 [2]: 1; Number of hatched larvae 5 days after insecticide delivery, Replicate 3 [2]: 1; Number of hatched larvae 4 days after insecticide delivery, Replicate 1 [3]: 5; Number of hatched larvae 4 days after insecticide delivery, Replicate 2 [3]: 5; Number of hatched larvae 4 days after insecticide delivery, Replicate 3 [3]: 6; Hatching rate (%), Replicate 1 [3]: 5.75%; Hatching rate (%), Replicate 2 [3]: 5.26%; Hatching rate (%), Replicate 3 [3]: 4.92%
